Laboratory results from patent US20240238271A1, “PHARMACEUTICAL COMPOSITION FOR ENHANCING CELL KILLING, AND USE THEREOF” (SHANGHAI JUNCELL THERAPEUTICS CO., LTD., priority 2020, published 2024).

Key:
[1] = test system: primary tumor cells such as pancreatic tumor cells; experiment: Killing effect of TILs on primary tumor cells treated with hydroxychloroquine; assay type: cell-based, human
Description: In a specific embodiment, TILs are obtained from tumor samples of pancreatic cancer patients with reference to the method disclosed in CN110785486A (which is incorporated herein by reference in its entirety). Primary tumor cells such as pancreatic tumor cells are treated with the TILs alone (control group) or in combination with a compound of Formula (I) (e.g., hydroxychloroquine) (compound group). The cells of the compound group are treated with different concentrations of the compound of Formula (I) (e.g., hydroxychloroquine) for more than 12 hours (e.g., 24 hours). Under different effect-to-target ratios were the killing effects of TILs on target cells in the control group and the compound group detected.

HLAs = experiment: HLA expression (positive rate) of tumor cells treated with hydroxychloroquine; assay type: cell-based, human; details: compound group vs control group
type I HLA (HLA-A, B, C) [2] = experiment: Type I HLA on surface of tumor cells of T008 PDX mice, flow cytometry MFI; assay type: in vivo, mouse; details: 60 mg/kg/day i.p. q.d. 30 days, vs PBS control
Description: (§1) PDX mouse models derived from tissue T008 and tissue T018 were established according to the method of example 3. The model animals were grouped according to the following Table 7 in which mice were treated with hydroxychloroquine alone. Hydroxychloroquine used in the experiment was purchased from MCE (Cat. No.: HY-W031727).
(§2) Mice were sacrificed 30 days after treatment, and tumor tissues were taken out and digested into a single-cell suspension with dispase. After staining with a general HLA-A, B, C flow cytometric antibody (Biolegend, PE-anti-human HLA-A, B, C Antibody Cat. NO. 311406), the phenotypes and fluorescence intensity (MFI) were measured by flow cytometry, and the MFI values of different groups of HLA-type I positive cells were counted and compared.

type I HLA (HLA-A, B, C) [3] = experiment: Type I HLA on surface of tumor cells of T018 PDX mice, flow cytometry MFI; assay type: in vivo, mouse; details: 60 mg/kg/day i.p. q.d. 30 days, vs PBS control
Description: as §1, §2

SMILES: CCN(CCO)CCCC(C)Nc1ccnc2cc(Cl)ccc12 (centres unmarked) [hydroxychloroquine]
- concentration of hydroxychloroquine at which the effect on TIL killing is more clear ([1]; compound group vs control group (TILs alone)): above 20 μM
- killing effects of TILs on target cells ([1]; primary tumor cells treated with hydroxychloroquine for more than 12 hours (e.g., 24 hours), different effect-to-target ratios, vs TILs alone): more effectively killed by TILs
- positive rate of the cells (HLA expression) (HLAs): significantly higher
- expression levels of type I HLA on the surface of tumor cells (type I HLA (HLA-A, B, C) [2]): significantly increased
- expression levels of type I HLA on the surface of tumor cells (type I HLA (HLA-A, B, C) [3]): significantly increased
